Data reported in BindingDB's records for doi:10.1021/jm0204035 (Glaxosmithkline, 2003).

How the values were obtained:
[1] = molecular target: Trans-2-enoyl-ACP reductase II (Streptococcus pneumoniae, UniProt Q9FBC5); test: Enzyme Inhibition Assay; conditions: 30 °C
Procedure: (§1) Assays were carried out in half-area, 96-well microtiter plates. Compounds were evaluated in assay mixtures containing components specific for each enzyme. Inhibitors were varied over the range 0.01-10 uM. The consumption of NAD(P)H was monitored for 20 min at 30 °C by following the change in absorbance at 340 nm. IC50 values were estimated from a fit of the initial velocities to a standard equation.

[2] = molecular target: T1, Enoyl-[acyl-carrier-protein] reductase [NADH] FabI (Escherichia coli (strain K12), UniProt P0AEK4); test: Enzyme Inhibition Assay; conditions: pH 6.5; 30 °C
T1 sequence (P0AEK4 whole entry): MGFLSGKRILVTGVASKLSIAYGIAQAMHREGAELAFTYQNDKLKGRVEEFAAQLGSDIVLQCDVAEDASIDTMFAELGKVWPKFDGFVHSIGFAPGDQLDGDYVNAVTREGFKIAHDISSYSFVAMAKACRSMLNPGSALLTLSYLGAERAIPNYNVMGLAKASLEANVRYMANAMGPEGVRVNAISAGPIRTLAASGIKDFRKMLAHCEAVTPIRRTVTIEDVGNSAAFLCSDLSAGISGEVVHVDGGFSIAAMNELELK
Procedure: as §1

Chain of Trans-2-enoyl-ACP reductase II (Q9FBC5 whole entry): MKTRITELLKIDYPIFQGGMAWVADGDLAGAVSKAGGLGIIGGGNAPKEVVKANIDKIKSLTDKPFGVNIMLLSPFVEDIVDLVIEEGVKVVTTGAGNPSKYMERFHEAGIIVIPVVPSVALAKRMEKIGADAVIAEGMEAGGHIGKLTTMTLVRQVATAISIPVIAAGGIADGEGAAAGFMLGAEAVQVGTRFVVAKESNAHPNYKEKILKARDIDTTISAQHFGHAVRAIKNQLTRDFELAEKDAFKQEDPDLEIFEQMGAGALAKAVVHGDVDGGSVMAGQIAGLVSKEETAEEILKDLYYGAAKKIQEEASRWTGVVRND

IC50 [1] [µM]	IC50 [2] [µM]	Structure (SMILES)
> 30	< 0.07	Cc1cccc2c(CN(C)C(=O)/C=C/c3cnc4c(c3)CCC(=O)N4)c(C)n(C)c12 [(2E)-N-methyl-3-(7-oxo-5,6,7,8-tetrahydro-1,8-naphthyridin-3-yl)-N-[(1,2,7-trimethyl-1H-indol-3-yl)methyl]prop-2-enamide]
	< 0.06	Cc1[nH]c2ccccc2c1CN(C)C(=O)/C=C/c1cnc2c(c1)CCC(=O)N2 [(2E)-N-methyl-N-[(2-methyl-1H-indol-3-yl)methyl]-3-(7-oxo-5,6,7,8-tetrahydro-1,8-naphthyridin-3-yl)prop-2-enamide]
> 30		Cc1c(CN(C)C(=O)/C=C/c2cnc3c(c2)CCC(=O)N3)c2ccccc2n1C [(E)-N-(1,2-Dimethyl-1H-indol-3-ylmethyl)-N-methyl-3-(7-oxo-5,6,7,8-tetrahydro-1,8-naphthyridin-3-yl)acrylamide]

Structure (SMILES)	IC50 [1] [µM]	IC50 [2] [µM]
Oc1cc(Cl)ccc1Oc1ccc(Cl)cc1Cl	> 30	
